Reference: US10865191B2, “Heterocyclic compounds useful as modulators of TNF alpha” (BRISTOL-MYERS SQUIBB COMPANY, priority 2015, dated 2020)

molecular target: TNFα (Homo sapiens, UniProt P01375); assay: TNF induced HEK-Blue assay (NF-kB-driven secreted alkaline phosphatase reporter); type: cell-based; conditions: TNFα 0.5 ng/mL, HEK-Blue-CD40L cells, 18 h; read-out: TNF induced HEK-Blue assay IC50 value
How it was run: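 HEK-Blue-CD40L cells (NF-kB-driven SEAP reporter), 20,000/well, added after 30 min pre-incubation of compound (0.004–25 μM final) with TNFα 0.5 ng/mL final at 37 °C; 18 h incubation. SEAP read with QUANTI-Blue at 620 nm; IC50 from 4-parameter logistic fit, normalized to unstimulated and stimulated DMSO controls.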

Chain of TNFα (P01375 77-233 limits assumed): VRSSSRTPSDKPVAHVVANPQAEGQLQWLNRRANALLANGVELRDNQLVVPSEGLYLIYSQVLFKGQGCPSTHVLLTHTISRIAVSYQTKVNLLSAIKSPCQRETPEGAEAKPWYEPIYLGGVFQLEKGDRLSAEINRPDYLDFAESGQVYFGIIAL

Row | Compound | IC50 [nM]
1 | C[C@@H](Nc1c(Cl)cnc2ccccc12)c1cc(-c2ccnnc2)ccc1F [Example 515, (R)-3-chloro-N-(1-(2-fluoro-5-(pyridazin-4-yl)phenyl)ethyl)quinolin-4-amine] | 1000 to 10000
2 | Fc1ccc(Br)cc1CNc1c(Cl)cnc2ccccc12 [Example 516, N-(5-bromo-2-fluorobenzyl)-3-chloroquinolin-4-amine] | 10000 to 25000
3 | COc1ccc(F)c(CNc2c(Cl)cnc3ccccc23)c1 [Example 517, 3-chloro-N-(2-fluoro-5-methoxybenzyl)quinolin-4-amine] | 1000 to 10000
4 | C[C@@H](Nc1c(Cl)cnc2ccccc12)c1cc(-c2cnc(C3CC3)nc2)ccc1F [Example 519, (R)-3-chloro-N-(1-(5-(2-cyclopropylpyrimidin-5-yl)-2-fluorophenyl)ethyl) quinolin-4-amine] | 1000 to 10000
5 | C[C@@H](Nc1c(Cl)cnc2ccccc12)c1cc(-c2ccnc3[nH]ccc23)ccc1F [Example 525, (R)-3-chloro-N-(1-(2-fluoro-5-(1H-pyrrolo[2,3-b]pyridin-4-yl)phenyl)ethyl) quinolin-4-amine] | 1000 to 10000
6 | C[C@@H](Nc1c(Cl)cnc2ccccc12)c1cc(-c2cccc(N)c2)ccc1F [Example 526, (R)—N-(1-(3′-amino-4-fluoro-[1,1′-biphenyl]-3-yl)ethyl)-3-chloroquinolin-4-amine] | 1000 to 10000
7 | COc1cc(-c2ccc(F)c([C@@H](C)Nc3c(Cl)cnc4ccccc34)c2)c(F)cn1 [Example 527, (R)-3-chloro-N-(1-(2-fluoro-5-(5-fluoro-2-methoxypyridin-4-yl)phenyl)ethyl)quinolin-4-amine] | 1000 to 10000
8 | C[C@@H](Nc1c(Cl)cnc2ccccc12)c1cc(-c2cc3ccccc3[nH]2)ccc1F [Example 528, (R)-3-chloro-N-(1-(2-fluoro-5-(1H-indol-2-yl)phenyl)ethyl)quinolin-4-amine] | 1000 to 10000
9 | C[C@@H](Nc1c(Cl)cnc2ccccc12)c1cc(-c2cnc(N(C)C)nc2)ccc1F [Example 536, (R)-3-chloro-N-(1-(5-(2-(dimethylamino)pyrimidin-5-yl)-2-fluorophenyl)ethyl)quinolin-4-amine] | 1000 to 10000
10 | Cc1nc2ccccc2c(N[C@H](C)c2cc(Br)ccc2F)c1Cl [Example 538, (R)—N-(1-(5-bromo-2-fluorophenyl)ethyl)-3-chloro-2-methylquinolin-4-amine] | 1000 to 10000
11 | C[C@@H](Nc1c(Cl)cnc2ccccc12)c1cc(-c2cncc(C#N)c2)ccc1F [Example 541, (R)-5-(3-(1-((3-chloroquinolin-4-yl)amino)ethyl)-4-fluorophenyl)nicotinonitrile] | 1000 to 10000
12 | COc1ncc(-c2ccc(F)c([C@@H](C)Nc3c(Cl)cnc4ccccc34)c2)cn1 [Example 543, (R)-3-chloro-N-(1-(2-fluoro-5-(2-methoxypyrimidin-5-yl)phenyl)ethyl)quinolin-4-amine] | 10000 to 25000
13 | C[C@@H](Nc1ccnc2ccc(Br)cc12)c1cc(-c2cncnc2)ccc1F [Example 546, (R)-6-bromo-N-(1-(2-fluoro-5-(pyrimidin-5-yl)phenyl)ethyl)quinolin-4-amine] | 10000 to 25000
14 | C[C@@H](Nc1c(Cl)cnc2ccccc12)c1cc(-c2ccccc2N)ccc1F [Example 547, (R)—N-(1-(2′-amino-4-fluoro-[1,1′-biphenyl]-3-yl)ethyl)-3-chloroquinolin-4-amine] | 1000 to 10000
15 | COc1ccncc1-c1ccc(F)c([C@@H](C)Nc2c(Cl)cnc3ccccc23)c1 [Example 548, (R)-3-chloro-N-(1-(2-fluoro-5-(4-methoxypyridin-3-yl)phenyl)ethyl) quinolin-4-amine] | < 1000
16 | COc1ccccc1-c1ccc(F)c([C@@H](C)Nc2c(Cl)cnc3ccccc23)c1 [Example 549, (R)-3-chloro-N-(1-(4-fluoro-2′-methoxy-[1,1′-biphenyl]-3-yl)ethyl)quinolin-4-amine] | 1000 to 10000
17 | C[C@@H](Nc1c(Cl)cnc2ccc(-c3cnn(C)c3)cc12)c1cc(-c2cncnc2)ccc1F [Example 550, (R)-3-chloro-N-(1-(2-fluoro-5-(pyrimidin-5-yl)phenyl)ethyl)-6-(1-methyl-1H-pyrazol-4-yl)quinolin-4-amine] | < 1000
18 | C[C@@H](Nc1c(Cl)cnc2ccccc12)c1cc(-c2cncc(C(=O)N3CCOCC3)c2)ccc1F [Example 551, (R)-(5-(3-(1-((3-chloroquinolin-4-yl)amino)ethyl)-4-fluorophenyl)pyridin-3-yl)(morpholino)methanone] | 1000 to 10000
19 | C[C@@H](Nc1c(Cl)cnc2ccccc12)c1cc(-c2ccccc2C#N)ccc1F [Example 552, (R)-3′-(1-((3-chloroquinolin-4-yl)amino)ethyl)-4′-fluoro-[1,1′-biphenyl]-2-carbonitrile] | < 1000

Other lines, results leading:

Row | IC50 [nM] | Compound
20 | < 1000 | C[C@@H](Nc1c(Cl)cnc2ccccc12)c1cc(-c2ccc(C#N)nc2)ccc1F [Example 514, (R)-5-(3-(1-((3-chloroquinolin-4-yl)amino)ethyl)-4-fluorophenyl)picolinonitrile]
21 | < 1000 | Cc1ccc(-c2ccc(F)c([C@@H](C)Nc3c(Cl)cnc4ccccc34)c2)cn1 [Example 518, (R)-3-chloro-N-(1-(2-fluoro-5-(6-methylpyridin-3-yl)phenyl)ethyl)quinolin-4-amine]
22 | < 1000 | COc1ncc(-c2ccc(F)c([C@@H](C)Nc3c(Cl)cnc4ccccc34)c2)cc1C#N [Example 520, (R)-5-(3-(1-((3-chloroquinolin-4-yl)amino)ethyl)-4-fluorophenyl)-2-methoxynicotinonitrile]
23 | < 1000 | COc1ncc(-c2ccc(F)c([C@@H](C)Nc3c(Cl)cnc4ccccc34)c2)cc1N [Example 521, (R)—N-(1-(5-(5-amino-6-methoxypyridin-3-yl)-2-fluorophenyl)ethyl)-3-chloroquinolin-4-amine]
24 | < 1000 | COc1cncc(-c2ccc(F)c([C@@H](C)Nc3c(Cl)cnc4ccccc34)c2)c1 [Example 522, (R)-3-chloro-N-(1-(2-fluoro-5-(5-methoxypyridin-3-yl)phenyl)ethyl)quinolin-4-amine]
25 | < 1000 | CNc1ccncc1-c1ccc(F)c([C@@H](C)Nc2c(Cl)cnc3ccccc23)c1 [Example 523, (R)-3-chloro-N-(1-(2-fluoro-5-(4-(methylamino)pyridin-3-yl)phenyl)ethyl)quinolin-4-amine]
26 | < 1000 | C[C@@H](Nc1c(Cl)cnc2ccccc12)c1cc(-c2cncn2C)ccc1F [Example 524, (R)-3-chloro-N-(1-(2-fluoro-5-(1-methyl-1H-imidazol-5-yl)phenyl)ethyl)quinolin-4-amine]
27 | < 1000 | Cc1ccncc1-c1ccc(F)c([C@@H](C)Nc2c(Cl)cnc3ccccc23)c1 [Example 529, (R)-3-chloro-N-(1-(2-fluoro-5-(4-methylpyridin-3-yl)phenyl)ethyl)quinolin-4-amine]
28 | < 1000 | Cc1nc2ccccc2c(N[C@H](C)c2cc(-c3cncnc3)ccc2F)c1Cl [Example 530, (R)-3-chloro-N-(1-(2-fluoro-5-(pyrimidin-5-yl)phenyl)ethyl)-2-methylquinolin-4-amine]
29 | < 1000 | Cc1nc2ccccc2c(N[C@H](C)c2cc(-c3cccnc3)ccc2F)c1Cl [Example 531, (R)-3-chloro-N-(1-(2-fluoro-5-(pyridin-3-yl)phenyl)ethyl)-2-methylquinolin-4-amine]
30 | < 1000 | C[C@@H](Nc1c(Cl)cnc2ccc(Br)cc12)c1cc(-c2cncnc2)ccc1F [Example 532, (R)-6-bromo-3-chloro-N-(1-(2-fluoro-5-(pyrimidin-5-yl)phenyl)ethyl)quinolin-4-amine]
31 | < 1000 | Cc1nc2ccccc2c(N[C@H](C)c2cc(-c3cn[nH]c3)ccc2F)c1Cl [Example 533, (R)-3-chloro-N-(1-(2-fluoro-5-(1H-pyrazol-4-yl)phenyl)ethyl)-2-methylquinolin-4-amine]
32 | < 1000 | Cc1ncc(-c2ccc(F)c([C@@H](C)Nc3c(Cl)c(C)nc4ccccc34)c2)cn1 [Example 534, (R)-3-chloro-N-(1-(2-fluoro-5-(2-methylpyrimidin-5-yl)phenyl)ethyl)-2-methylquinolin-4-amine]
33 | < 1000 | Cc1ncc(-c2ccc(F)c([C@@H](C)Nc3c(Cl)cnc4ccccc34)c2)cn1 [Example 535, (R)-3-chloro-N-(1-(2-fluoro-5-(2-methylpyrimidin-5-yl)phenyl)ethyl)quinolin-4-amine]
34 | < 1000 | C[C@@H](Nc1c(Cl)cnc2ccccc12)c1cc(-c2cnc3[nH]ccc3c2)ccc1F [Example 537, (R)-3-chloro-N-(1-(2-fluoro-5-(1H-pyrrolo[2,3-b]pyridin-5-yl)phenyl)ethyl)quinolin-4-amine]
35 | < 1000 | C[C@@H](Nc1c(Cl)cnc2ccccc12)c1cc(-c2cccc(C#N)c2)ccc1F [Example 539, (R)-3′-(1-((3-chloroquinolin-4-yl)amino)ethyl)-4′-fluoro-[1,1′-biphenyl]-3-carbonitrile]
36 | < 1000 | C[C@@H](Nc1c(Cl)cnc2ccc(-c3ccncc3)cc12)c1cc(-c2cncnc2)ccc1F [Example 540, (R)-3-chloro-N-(1-(2-fluoro-5-(pyrimidin-5-yl)phenyl)ethyl)-6-(pyridin-4-yl)quinolin-4-amine]
37 | < 1000 | C[C@@H](Nc1c(Cl)cnc2ccccc12)c1cc(-c2cncs2)ccc1F [Example 542, (R)-3-chloro-N-(1-(2-fluoro-5-(thiazol-5-yl)phenyl)ethyl)quinolin-4-amine]
38 | < 1000 | C[C@@H](Nc1c(Cl)cnc2ccc(F)cc12)c1cc(-c2cncnc2)ccc1F [Example 544, (R)-3-chloro-6-fluoro-N-(1-(2-fluoro-5-(pyrimidin-5-yl)phenyl)ethyl)quinolin-4-amine]
39 | < 1000 | C[C@@H](Nc1c(Cl)cnc2ccc(Cl)cc12)c1cc(-c2cncnc2)ccc1F [Example 545, (R)-3,6-dichloro-N-(1-(2-fluoro-5-(pyrimidin-5-yl)phenyl)ethyl)quinolin-4-amine]
